Reference: article PMC7696433, “Carbohydrate Hydrolase-Inhibitory Activity of Juice-Based Phenolic Extracts in Correlation to Their Anthocyanin/Copigment Profile” (Molecules, 2020)

Key:
[1] = target: T1, porcine pancreatic α-amylase (Sus scrofa, UniProt P00690); assay: In vitro α-amylase inhibition study (CNPG3 substrate, absorbance 405 nm); assay type: biochemical; conditions: 2 mM of single substance; mean ± SD, n = 3
T1 construct: α-amylase from porcine pancreas; purchased Sigma-Aldrich (Taufkirchen, Germany); host or cells: porcine pancreas
T1 sequence (P00690 16-511): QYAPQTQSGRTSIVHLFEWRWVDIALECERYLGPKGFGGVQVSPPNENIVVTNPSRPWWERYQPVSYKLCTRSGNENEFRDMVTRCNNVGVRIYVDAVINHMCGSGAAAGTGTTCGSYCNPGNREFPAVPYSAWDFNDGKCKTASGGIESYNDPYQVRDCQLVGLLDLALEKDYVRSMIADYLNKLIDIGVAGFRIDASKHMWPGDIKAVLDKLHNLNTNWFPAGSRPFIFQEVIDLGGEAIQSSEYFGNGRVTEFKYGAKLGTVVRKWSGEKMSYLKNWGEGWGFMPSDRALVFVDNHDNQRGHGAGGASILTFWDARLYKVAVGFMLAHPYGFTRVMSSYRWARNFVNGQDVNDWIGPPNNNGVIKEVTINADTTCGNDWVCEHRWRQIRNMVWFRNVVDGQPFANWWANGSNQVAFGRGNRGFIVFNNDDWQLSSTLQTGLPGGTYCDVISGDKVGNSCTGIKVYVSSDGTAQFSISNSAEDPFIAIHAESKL
Method: The α-amylase inhibition assay was based on a previously described spectrophotometric method. […] Briefly, 20 μL aliquots of the sample (in five different concentrations), the positive control, or the negative control were each mixed with 70 μL of 40 mM phosphate buffered saline (PBS) at pH 6.9 containing 30 U/mL of porcine pancreatic α-amylase and incubated in a 96-well microplate at 37 °C for 10 min. After pre-incubation, 100 μL of substrate solution (40 mM PBS with 4 mM 2-chloro-4-nitrophenyl-α-D-maltotrioside) was added, and the resulting mixtures were incubated at 37 °C for 8 min. Their absorbance was then measured at λ 405 nm using a microplate reader (Biotek, Bad Friedrichshall, Germany). Each sample was measured in triplicate.

[2] = tested on: α-glucosidase from Saccharomyces cerevisiae; assay: In vitro α-glucosidase inhibition study (pNPG substrate, absorbance 405 nm); assay type: biochemical; conditions: 2 mM of single substance; mean ± SD, n = 3
Method: The α-glucosidase inhibition assay used 4-nitrophenyl-α-D-glucopyranoside as substrate. 20 μL aliquots of the sample (in five different concentrations) or negative and positive control solutions were each mixed with 70 μL enzyme solution (1 U/mL) in 0.1 M PBS (pH 6.8). After incubation at 25 °C for 10 min, 100 μL of 4 mM pNPG solution in PBS was added and incubated in a 96-well microplate for 5 min at 25 °C. The absorbance was measured at λ 405 nm using a microplate reader (Biotek, Bad Friedrichshall, Germany). Each sample was measured in triplicate.

Row | Structure (SMILES) | Inhibition (%) of α-amylase [1] [%] | Inhibition (%) of α-glucosidase [2] [%]
1 | O=C1O[C@H]2[C@@H]3OC(=O)c4cc(O)c(O)c(O)c4-c4c(O)c(O)c5oc(=O)c6c(c(O)c(O)c7oc(=O)c4c5c76)-c4c(cc(O)c(O)c4O)C(=O)OC[C@H]3OC(O)[C@@H]2OC(=O)c2cc(O)c(O)c(O)c2-c2c1cc(O)c(O)c2O (mixture of isomers) [punicalagin] | 4.8 ± 2.6 | 11.5 ± 1.0
2 | O=C(/C=C/c1ccc(O)c(O)c1)O[C@@H]1C[C@](O)(C(=O)O)C[C@@H](O)[C@H]1O [3-caffeoylquinic acid] | 13.8 ± 1.4 | 3.6 ± 2.2
3 | O=C(/C=C/c1ccc(O)c(O)c1)O[C@@H]1C[C@](O)(C(=O)O)C[C@@H](O)[C@H]1O [chlorogenic acid] | 20.3 ± 2.3 | 1.6 ± 3.1
4 | OC[C@H]1O[C@@H](Oc2cc3c(O)cc(O)cc3[o+]c2-c2cc(O)c(O)c(O)c2)[C@H](O)[C@@H](O)[C@@H]1O [delphinidin glucoside, Delphinidin 3-glucoside] | 12.7 ± 1.9 | –
5 | O=c1c(O[C@@H]2O[C@H](CO)[C@@H](O)[C@H](O)[C@H]2O)c(-c2ccc(O)cc2)oc2cc(O)cc(O)c12 [kaempferol 3-glucoside] | 30.3 ± 2.2 | 13.2 ± 0.7
6 | COc1cc(-c2[o+]c3cc(O)cc(O)c3cc2O[C@@H]2O[C@H](CO)[C@@H](O)[C@H](O)[C@H]2O)cc(OC)c1O [malvidin glucoside, Malvidin 3-glucoside] | 9.1 ± 5.6 | –
7 | O=c1c(O[C@@H]2O[C@H](CO)[C@H](O)[C@H](O)[C@H]2O)c(-c2ccc(O)c(O)c2)oc2cc(O)cc(O)c12 [quercetin 3-galactoside] | 28.0 ± 1.0 | 8.3 ± 1.2

Results, then the compound that gave them:

Row | Inhibition (%) of α-amylase [1] [%] | Inhibition (%) of α-glucosidase [2] [%] | Structure (SMILES)
8 | 3.8 ± 0.2 | 8.7 ± 0.6 | O=C1OC[C@H]2OC(O)[C@H](O)[C@@H](O)[C@@H]2OC(=O)c2cc(O)c(O)c(O)c2-c2c(O)c(O)c3oc(=O)c4c(c(O)c(O)c5oc(=O)c2c3c54)-c2c1cc(O)c(O)c2O (mixture of isomers) [punicalin]
9 | 16.0 ± 3.1 | 4.5 ± 3.3 | O=C(/C=C/c1ccc(O)c(O)c1)O[C@H]1[C@H](O)C[C@](O)(C(=O)O)C[C@H]1O [4-caffeoylquinic acid]
10 | – | 35.5 ± 2.4 | Oc1cc(O)c2cc(O)c(-c3ccc(O)c(O)c3)[o+]c2c1 [Cyanidin]
11 | 11.5 ± 2.5 | 4.6 ± 2.2 | O=C(/C=C/c1ccc(O)c(O)c1)O[C@@H](C(=O)O)[C@@H](O)C(=O)O [caftaric acid]
12 | – | 4.9 ± 5.2 | OC[C@H]1O[C@@H](Oc2cc3c(O[C@@H]4O[C@H](CO)[C@@H](O)[C@H](O)[C@H]4O)cc(O)cc3[o+]c2-c2ccc(O)c(O)c2)[C@H](O)[C@@H](O)[C@@H]1O [cyanidin 3,5-diglucoside]
13 | 18.7 ± 1.2 | – | Oc1cc(O)c2cc(O[C@@H]3OC[C@H](O)[C@H](O)[C@H]3O)c(-c3ccc(O)c(O)c3)[o+]c2c1 [cyanidin 3-arabinoside]
14 | – | 7.8 ± 5.5 | OC[C@H]1O[C@@H](Oc2cc3c(O)cc(O)cc3[o+]c2-c2ccc(O)c(O)c2)[C@H](O)[C@@H](O)[C@@H]1O [cyanidin 3-glucoside]
15 | 7.6 ± 1.8 | – | C[C@@H]1O[C@@H](OC[C@H]2O[C@@H](Oc3cc4c(O)cc(O)cc4[o+]c3-c3ccc(O)c(O)c3)[C@H](O)[C@@H](O)[C@@H]2O)[C@H](O)[C@H](O)[C@H]1O [cyanidin 3-rutinoside]
16 | 11.0 ± 0.8 | 6.0 ± 0.8 | O=c1oc2c(O)c(O)cc3c(=O)oc4c(O)c(O)cc1c4c23 [ellagic acid]
17 | 11.3 ± 0.5 | – | COc1cc(-c2[o+]c3cc(O)cc(O)c3cc2O[C@@H]2O[C@H](CO)[C@@H](O)[C@H](O)[C@H]2O)ccc1O [peonidin glucoside, Peonidin 3-glucoside]
18 | 7.7 ± 2.5 | – | COc1cc(-c2[o+]c3cc(O)cc(O)c3cc2O[C@@H]2O[C@H](CO)[C@@H](O)[C@H](O)[C@H]2O)cc(O)c1O [petunidin glucoside, Petunidin 3-glucoside]
